ChEMBL document CHEMBL3217497, “Design, synthesis and antiproliferative activity of indole analogues of indanocine” (2013)

Assays:
Format in all cases: functional
[1] = tested on: RPMI-8226; assay: Cytotoxicity against human RPMI8226 cells assessed as growth inhibition
[2] = tested on: HL-60(TB); assay: Cytotoxicity against human HL-60(TB) cells assessed as growth inhibition
[3] = tested on: K562; assay: Cytotoxicity against human K562 cells assessed as growth inhibition
[4] = tested on: CCRF-CEM; assay: Cytotoxicity against human CCRF-CEM cells assessed as growth inhibition
[5] = tested on: MDA-MB-468; assay: Cytotoxicity against human MDA-MB-468 cells assessed as growth inhibition
[6] = tested on: T47D; assay: Cytotoxicity against human T47D cells assessed as growth inhibition
[7] = Cytotoxicity against human Hs 578T cells assessed as growth inhibition
[8] = tested on: MDA-MB-231; assay: Cytotoxicity against human MDA-MB-231 cells assessed as growth inhibition
[9] = tested on: MCF7; assay: Cytotoxicity against human MCF7 cells assessed as growth inhibition
[10] = tested on: DU-145; assay: Cytotoxicity against human DU145 cells assessed as growth inhibition
[11] = tested on: PC-3; assay: Cytotoxicity against human PC3 cells assessed as growth inhibition
[12] = tested on: TK-10; assay: Cytotoxicity against human TK10 cells assessed as growth inhibition
[13] = Cytotoxicity against human UO31 cells assessed as growth inhibition; conditions: UO-31
[14] = tested on: SN12C; assay: Cytotoxicity against human SN12C cells assessed as growth inhibition
[15] = tested on: RXF 393; assay: Cytotoxicity against human RXF393 cells assessed as growth inhibition
[16] = tested on: CAKI-1; assay: Cytotoxicity against human CAKI-1 cells assessed as growth inhibition
[17] = tested on: 786-0; assay: Cytotoxicity against human 786-0 cells assessed as growth inhibition
[18] = tested on: A498; assay: Cytotoxicity against human A498 cells assessed as growth inhibition
[19] = tested on: SK-OV-3; assay: Cytotoxicity against human SKOV3 cells assessed as growth inhibition
[20] = Cytotoxicity against human NCI-ADR-RES cells assessed as growth inhibition
[21] = Cytotoxicity against human OVCAR8 cells assessed as growth inhibition; conditions: OVCAR-8
[22] = Cytotoxicity against human OVCAR5 cells assessed as growth inhibition; conditions: OVCAR-5
[23] = Cytotoxicity against human OVCAR4 cells assessed as growth inhibition; conditions: OVCAR-4
[24] = Cytotoxicity against human OVCAR3 cells assessed as growth inhibition; conditions: OVCAR-3
[25] = Cytotoxicity against human UACC62 cells assessed as growth inhibition; conditions: UACC-62
[26] = tested on: IGROV-1; assay: Cytotoxicity against human IGROV1 cells assessed as growth inhibition
[27] = Cytotoxicity against human UACC257 cells assessed as growth inhibition; conditions: UACC-257
[28] = tested on: SK-MEL-5; assay: Cytotoxicity against human SK-MEL-5 cells assessed as growth inhibition
[29] = tested on: SK-MEL-28; assay: Cytotoxicity against human SK-MEL-28 cells assessed as growth inhibition
[30] = tested on: SK-MEL-2; assay: Cytotoxicity against human SK-MEL-2 cells assessed as growth inhibition
[31] = tested on: MDA-MB-435; assay: Cytotoxicity against human MDA-MB-435 cells assessed as growth inhibition
[32] = tested on: M14; assay: Cytotoxicity against human M14 cells assessed as growth inhibition
[33] = tested on: Malme-3M; assay: Cytotoxicity against human MALME-3M cells assessed as growth inhibition
[34] = tested on: LOX IMVI; assay: Cytotoxicity against human LOXIMVI cells assessed as growth inhibition
[35] = tested on: U-251; assay: Cytotoxicity against human U251 cells assessed as growth inhibition
[36] = tested on: SNB-75; assay: Cytotoxicity against human SNB75 cells assessed as growth inhibition
[37] = tested on: SNB-19; assay: Cytotoxicity against human SNB19 cells assessed as growth inhibition
[38] = tested on: SF-295; assay: Cytotoxicity against human SF295 cells assessed as growth inhibition
[39] = tested on: SF-539; assay: Cytotoxicity against human SF539 cells assessed as growth inhibition
[40] = tested on: SF-268; assay: Cytotoxicity against human SF268 cells assessed as growth inhibition
[41] = tested on: SW-620; assay: Cytotoxicity against human SW620 cells assessed as growth inhibition
[42] = tested on: KM12; assay: Cytotoxicity against human KM12 cells assessed as growth inhibition
[43] = tested on: HT-29; assay: Cytotoxicity against human HT-29 cells assessed as growth inhibition
[44] = Cytotoxicity against human HCT15 cells assessed as growth inhibition; conditions: HCT-15
[45] = tested on: HCT-116; assay: Cytotoxicity against human HCT116 cells assessed as growth inhibition
[46] = tested on: HCC 2998; assay: Cytotoxicity against human HCC2998 cells assessed as growth inhibition
[47] = tested on: NCI-H522; assay: Cytotoxicity against human NCI-H522 cells assessed as growth inhibition
[48] = tested on: COLO 205; assay: Cytotoxicity against human COLO205 cells assessed as growth inhibition
[49] = tested on: NCI-H460; assay: Cytotoxicity against human NCI-H460 cells assessed as growth inhibition
[50] = tested on: NCI-H23; assay: Cytotoxicity against human NCI-H23 cells assessed as growth inhibition
[51] = tested on: NCI-H322M; assay: Cytotoxicity against human NCI-H322M cells assessed as growth inhibition
[52] = tested on: NCI-H226; assay: Cytotoxicity against human NCI-H226 cells assessed as growth inhibition
[53] = tested on: HOP-62; assay: Cytotoxicity against human HOP62 cells assessed as growth inhibition
[54] = tested on: HOP-92; assay: Cytotoxicity against human HOP92 cells assessed as growth inhibition
[55] = tested on: A549; assay: Cytotoxicity against human A549 cells assessed as growth inhibition
[56] = Cytotoxicity against human EKVX cells assessed as growth inhibition
[57] = tested on: SR; assay: Cytotoxicity against human SR cells assessed as growth inhibition
[58] = tested on: MOLT-4; assay: Cytotoxicity against human MOLT4 cells assessed as growth inhibition
[59] = tested on: BT-549; assay: Cytotoxicity against human BT549 cells assessed as growth inhibition
[60] = tested on: ACHN; assay: Cytotoxicity against human ACHN cells assessed as growth inhibition

Cc1cc(/C=C2\Cc3c([nH]c4ccccc34)C2=O)cc(C)c1O
GI50 [1]: 670 nM | GI50 [2]: 340 nM | GI50 [3]: 330 nM | GI50 [4]: 2180 nM | GI50 [5]: 2430 nM | GI50 [6]: 12.6 µM | GI50 [7]: 550 nM | GI50 [8]: 3190 nM | GI50 [9]: 700 nM | GI50 [10]: 2050 nM | GI50 [11]: 3570 nM | GI50 [12]: 6.27 µM | GI50 [13]: 320 nM | GI50 [14]: 620 nM | GI50 [15]: 1430 nM | GI50 [16]: 1400 nM | GI50 [17]: 5.96 µM | GI50 [18]: 4.86 µM | GI50 [19]: 730 nM | GI50 [20]: 350 nM | GI50 [21]: 990 nM | GI50 [22]: 11.1 µM | GI50 [23]: 10.2 µM | GI50 [24]: 510 nM | GI50 [25]: 4570 nM | GI50 [26]: 3540 nM | GI50 [27]: 26.1 µM | GI50 [28]: 390 nM | GI50 [29]: 730 nM | GI50 [30]: 400 nM | GI50 [31]: 160 nM | GI50 [32]: 410 nM | GI50 [33]: 310 nM | GI50 [34]: 690 nM | GI50 [35]: 1120 nM | GI50 [36]: 290 nM | GI50 [37]: 710 nM | GI50 [38]: 2780 nM | GI50 [39]: 550 nM | GI50 [40]: 860 nM | GI50 [41]: 410 nM | GI50 [42]: 460 nM | GI50 [43]: 15.8 µM | GI50 [44]: 560 nM | GI50 [45]: 500 nM | GI50 [46]: 7.49 µM | GI50 [47]: 90 nM | GI50 [48]: 19.5 µM | GI50 [49]: 420 nM | GI50 [50]: 1790 nM | GI50 [51]: 10.4 µM | GI50 [52]: 9.6 µM | GI50 [53]: 650 nM | GI50 [54]: 7.47 µM | GI50 [55]: 1580 nM | GI50 [56]: 2590 nM | GI50 [57]: 390 nM | GI50 [58]: 6.01 µM

Cc1cc(/C=C2\CCc3c([nH]c4ccccc34)C2=O)cc(C)c1O
GI50 [1]: 470 nM | GI50 [2]: 210 nM | GI50 [3]: 320 nM | GI50 [4]: 360 nM | GI50 [5]: 290 nM | GI50 [6]: 0.74 µM | GI50 [59]: 530 nM | GI50 [7]: 380 nM | GI50 [8]: 1060 nM | GI50 [9]: 350 nM | GI50 [10]: 540 nM | GI50 [11]: 1060 nM | GI50 [12]: 0.54 µM | GI50 [13]: 450 nM | GI50 [14]: 620 nM | GI50 [15]: 520 nM | GI50 [16]: 610 nM | GI50 [60]: 770 nM | GI50 [17]: 0.88 µM | GI50 [18]: 1.83 µM | GI50 [19]: 470 nM | GI50 [20]: 310 nM | GI50 [21]: 530 nM | GI50 [22]: 2.35 µM | GI50 [23]: 1.35 µM | GI50 [24]: 330 nM | GI50 [25]: 420 nM | GI50 [26]: 740 nM | GI50 [27]: 0.37 µM | GI50 [28]: 330 nM | GI50 [29]: 740 nM | GI50 [30]: 320 nM | GI50 [31]: 120 nM | GI50 [32]: 340 nM | GI50 [33]: 380 nM | GI50 [34]: 760 nM | GI50 [35]: 430 nM | GI50 [36]: 290 nM | GI50 [37]: 580 nM | GI50 [38]: 1880 nM | GI50 [39]: 320 nM | GI50 [40]: 730 nM | GI50 [41]: 410 nM | GI50 [42]: 390 nM | GI50 [43]: 4.32 µM | GI50 [44]: 420 nM | GI50 [45]: 440 nM | GI50 [46]: 2.21 µM | GI50 [47]: 130 nM | GI50 [48]: 14.2 µM | GI50 [49]: 410 nM | GI50 [50]: 650 nM | GI50 [51]: 0.53 µM | GI50 [52]: 3.29 µM | GI50 [53]: 650 nM | GI50 [54]: 0.78 µM | GI50 [55]: 550 nM | GI50 [56]: 3380 nM | GI50 [57]: 220 nM | GI50 [58]: 0.56 µM
